Consider seven compounds from ChEMBL document CHEMBL1201862, “PubChem BioAssay data set” (2004).

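Interpolation was linear, between the two tested concentrations surrounding the appropriate level; five concentrations were tested over 48 hours in 96-well plates. Here, GI50 denotes the concentration required for 50% inhibition of growth.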 Active and inactive are the calls of the source. Cut-off read from the data, not from the text of the source: active = GI50 up to about 1.1 µM and inactive = higher.

Test systems include TK-10; IGROV-1; HOP-62; U-251; MDA-MB-231; COLO 205; HCT-116; HCT-15; RPMI-8226; DU-145; NCI-H226; K562; A549; UACC-62; SR; SW-620; Malme-3M; HL-60; NCI-H460; Hs-578T.
What all share (assay): NCI-60 cell line screen, 48 h

In the case of `CCOC(=O)N(C)C1(c2ccccc2)CCN(CCCC(=O)c2ccc(F)cc2)CC1`, the GI50 in the assay on TK-10 is 45.3 µM (inactive); with IGROV-1, > 100 µM (inactive); with HOP-62, 38.5 µM (inactive); in the assay on U-251 it was 61.4 µM (inactive); with MDA-MB-231, 39.4 µM (inactive); in the assay with COLO 205, 15.4 µM (inactive). For the same compound, the GI50 with HCT-116 was 32.2 µM (inactive); with HCT-15 it was 35.1 µM; with RPMI-8226, 27.4 µM (inactive); in the assay with DU-145, > 100 µM (inactive); in the assay on NCI-H226, 35.4 µM (inactive); in the assay on K562, 23.7 µM (inactive). Further, the GI50 is 92.3 µM (inactive) in the assay on A549; 42.1 µM (inactive) with UACC-62; 19.8 µM (inactive) in the assay on SR; 0.349 µM (active) in the assay with SW-620; 15.3 µM (inactive) in the assay with Malme-3M; 26.5 µM (inactive) in the assay with HL-60. Further, the GI50 with NCI-H460 was 35.5 µM (inactive); with Hs-578T it was 49 µM (inactive).
`O=C(O)c1nc2ccc(Cl)cc2[nH]c1=O`: the GI50 in the assay on TK-10, in the assay on IGROV-1, in the assay on HOP-62, with U-251, in the assay with MDA-MB-231 and in the assay with COLO 205 was > 100 µM (inactive) in each case. Further, the GI50 in the assay on HCT-116 is > 100 µM (inactive); in the assay on HCT-15 it was greater than 100 µM; in the assay on RPMI-8226, > 100 µM (inactive); in the assay on DU-145, > 100 µM (inactive); in the assay on NCI-H226, > 100 µM (inactive); in the assay with K562, > 100 µM (inactive). The GI50 in the assay on A549, in the assay on UACC-62, in the assay with SR, in the assay on SW-620, in the assay with Malme-3M and in the assay with HL-60 was > 100 µM (inactive) each time. The GI50 in the assay on NCI-H460 and in the assay with Hs-578T was > 100 µM (inactive) each time.
As for `CC(C)NC(=O)CN1CCN(C2=CC(=O)c3c(O)ccc(O)c3C2=O)CC1`, the GI50 with TK-10 was 17.1 µM (inactive); with IGROV-1, 14.8 µM (inactive); in the assay on HOP-62 it was 18.2 µM (inactive); in the assay with U-251 it was 19.9 µM (inactive); with MDA-MB-231, 26.3 µM (inactive); in the assay with COLO 205, 3 µM (inactive). Moreover, the GI50 is 2.96 µM (inactive) in the assay on HCT-116; 8.75 µM in the assay with HCT-15; 24.9 µM (inactive) with RPMI-8226; 16.1 µM (inactive) in the assay on DU-145; 31.4 µM (inactive) in the assay on NCI-H226; 20.6 µM (inactive) with K562. Moreover, the GI50 in the assay with A549 was 16.4 µM (inactive); with UACC-62, 5.18 µM (inactive); in the assay with SR, 1.57 µM (inactive); in the assay with SW-620 it was 4.25 µM (inactive); in the assay with Malme-3M, 2.22 µM (inactive); with HL-60 it was 2.59 µM (inactive). In addition, the GI50 in the assay with NCI-H460 is 13 µM (inactive); in the assay on Hs-578T, 25.9 µM (inactive).
Consider `CN(C)Cc1cc(C(C)(C)C)cc(C2CCCCC2)c1O`, for which the GI50 in the assay with TK-10 was 15.5 µM (inactive); with IGROV-1 it was 18.8 µM (inactive); with HOP-62, 18 µM (inactive); with U-251 it was 14.4 µM (inactive); in the assay on MDA-MB-231, 13.8 µM (inactive); in the assay with COLO 205, 14.2 µM (inactive). For the same compound, the GI50 with HCT-116 is 40.7 µM (inactive); in the assay with HCT-15, 15.3 µM; with RPMI-8226, < 0.01 µM (active); in the assay on DU-145 it was 14.7 µM (inactive); in the assay with NCI-H226, 15.7 µM (inactive); in the assay on K562, 12.2 µM (inactive). Also, the GI50 is 13.6 µM (inactive) in the assay with A549; 16.1 µM (inactive) in the assay on UACC-62; 12.3 µM (inactive) with SR; 16.6 µM (inactive) with SW-620; 2.15 µM (inactive) with Malme-3M; 18.2 µM (inactive) in the assay on HL-60. Also, the values for the GI50 in the assay on NCI-H460 and in the assay on Hs-578T were 19.1 µM (inactive) and 16.6 µM (inactive), respectively.
Regarding `C[C@]12CC[C@H](O)CC1=CC[C@@H]1[C@@H]2CC[C@]2(C)C(=O)[C@@H](N3CCOCC3)C[C@@H]12`, the GI50 is > 100 µM (inactive) in the assay on TK-10; > 100 µM (inactive) in the assay on IGROV-1; > 100 µM (inactive) in the assay with HOP-62; 89.3 µM (inactive) in the assay with U-251; > 100 µM (inactive) in the assay on MDA-MB-231; > 100 µM (inactive) in the assay on COLO 205. Moreover, the GI50 in the assay on HCT-116 was > 100 µM (inactive); with HCT-15, greater than 100 µM; in the assay on RPMI-8226 it was 48.4 µM (inactive); with DU-145, > 100 µM (inactive); with NCI-H226, > 100 µM (inactive); with K562 it was 89.3 µM (inactive). Besides, the GI50 in the assay with A549 is > 100 µM (inactive); in the assay with UACC-62, 76.4 µM (inactive); with SR, 44.2 µM (inactive); with SW-620 it was > 100 µM (inactive); with Malme-3M, > 100 µM (inactive); in the assay with HL-60, 47.1 µM (inactive). The values for the GI50 in the assay on NCI-H460 and in the assay on Hs-578T were > 100 µM (inactive) and 90.4 µM (inactive), respectively.
Consider `C[N+]12CCCCC1C(CN1C(=O)c3ccccc3C1=O)CCC2` (stereo not given), for which the GI50 in the assay with TK-10, with IGROV-1, in the assay with HOP-62, in the assay on U-251, in the assay with MDA-MB-231 and in the assay with COLO 205 was > 100 µM (inactive) each time. Also, the GI50 is > 100 µM (inactive) with HCT-116; greater than 100 µM in the assay with HCT-15; > 100 µM (inactive) in the assay with RPMI-8226; > 100 µM (inactive) with DU-145; > 100 µM (inactive) with NCI-H226; > 100 µM (inactive) in the assay with K562. Also, the GI50 in the assay with A549 was > 100 µM (inactive); with UACC-62, > 100 µM (inactive); with SR, 56 µM (inactive); in the assay with SW-620, > 100 µM (inactive); with Malme-3M it was > 100 µM (inactive); in the assay on HL-60, > 100 µM (inactive). The GI50 with NCI-H460 and in the assay with Hs-578T was > 100 µM (inactive) each time.
As to `CN(C)CCNc1ccc([N+](=O)[O-])c2sc3ccccc3c(=O)c12`, the GI50 in the assay with TK-10 is 12.3 µM (inactive); in the assay with IGROV-1, 1.73 µM (inactive); in the assay on HOP-62, 2.81 µM (inactive); in the assay with U-251 it was 3.48 µM (inactive); with MDA-MB-231 it was 1.99 µM (inactive); in the assay with COLO 205, 2.86 µM (inactive). Further, the GI50 was 2.47 µM (inactive) in the assay on HCT-116; 3.67 µM in the assay on HCT-15; 2.64 µM (inactive) in the assay with RPMI-8226; 5.07 µM (inactive) in the assay on DU-145; 6.11 µM (inactive) in the assay with NCI-H226; 4.43 µM (inactive) in the assay with K562. For the same compound, the GI50 is 3.83 µM (inactive) in the assay with A549; 4.61 µM (inactive) in the assay on UACC-62; 1.56 µM (inactive) in the assay with SR; 2.43 µM (inactive) with SW-620; 4.27 µM (inactive) in the assay with Malme-3M; 2.66 µM (inactive) with HL-60. Also, the GI50 in the assay on NCI-H460 is 1.65 µM (inactive); with Hs-578T it was 5.52 µM (inactive).
